In general, inhibition refers to the drop in the measured response relative to a control, in per cent.

Consider one compound from US20170158636A1, “FUNCTIONALISED AND SUBSTITUTED CARBAZOLES AS ANTI-CANCER AGENTS” (Novogen Ltd., priority 2014, published 2017).

Type in all cases: cell-based
In experiment [1] the test system is Tpm3.1-containing actin filaments in SK-N-SH neuroblastoma cells. The experiment is described as follows: Disruption of Tpm3.1-containing actin filaments (γ9d staining). The conditions noted are these: SK-N-SH cells, 0, 5 and 7.5 μM, 48 hours post treatment. As for the experimental part:
FIG. 2: Imaging and quantitation of Tpm3.1-containing actin filaments in SK-N-SH neuroblastoma cells treated with compound (A) 1007, (B) 1013 and (C) 1016. Cells were stained with γ9d (sheep polycolonal, 1:100) followed by 488-conjugated secondary (1:1000) and DAPI to visualize the Tpm3.1 containing filament bundles and the nucleus, respectively. Shown in the top panel is a representative gray scale immunofluorescent image from control (vehicle alone), 5 μM and 7.5 μM treated cells. […] The coloured lines indicate the detected Tpm3.1 containing actin filaments. Also shown is the quantitation of cell number, Tpm3.1 filament number/cell and Tpm3.1 filament number/cell area (μM^2). Statistical analysis was performed using a one way ANNOVA-multiple comparison where each drug treated group was compared to the control. ****p<0.0001.
Another assay was conducted to assess the ability of compounds 1007, 1013 and 1016 to specifically disrupt actin filaments containing Tpm3.1 (FIG. 2). Briefly, SK-N-SH neuroblastoma cells were seeded at 2×10^4 cells/mL in a 10 cm tissue culture plate and left to plate down 24 hours prior to treatment. Cells were then treated with 0, 5 and 7.5 μM of the test compounds. 48 hours post treatment, cells were fixed with 4% w/v paraformaldehyde (PBS), permeabilized with Triton-X-100 and stained with γ9d (sheep polycolonal, 1:100) followed by 488-conjugated secondary (1:1000) and DAPI to visualize the Tpm3.1 containing filament bundles and the nucleus, respectively. Single plane images were obtained on the Zeiss epifluorescent Axioscope microscope using a 20× objective. Six fields of view per condition were imaged. Images were then exported and the linear features (actin filaments containing Tpm3.1) were then quantitated using the linear feature detection algorithm described above.

For experiment [2], the system named is IL-17A. The experiment is described as follows: Cytokine release from PMA/ionomycin-stimulated PBMCs (HTRF). The conditions noted are these: PBMC, human PBMCs, PMA and ionomycin. On the procedure:
(§1) The ability of compounds 1004, 1007 and 1018 to inhibit the release of cytokines TNF-α, IFN-γ, IL-6, IL-21, IL-17A and IL-23 was evaluated in vitro (Tables 2 and 3). Briefly, human peripheral blood mononuclear cells (PBMCs) were isolated from human peripheral blood by Histopaque density gradient centrifugation. The freshly isolated PBMCs were seeded at 50,000 cells/well in a 96-well half area plate. PBMCs were dosed with the test compounds (at 10 μM, 1 μM and 0.1 μM) and then incubated at 37° C. and 5% CO2 for 2 hours. To stimulate release of the cytokines IFN-γ, IL-21, IL-17A and IL-23, the PBMCs were treated with 50 ng/mL of phorbol 12-myristate 13-acetate (PMA) and 1 μg/mL of ionomycin and to stimulate the release of TNF-α and IL-6, PBMCs were treated with 100 ng/mL of lipopolysaccharide (LPS) from gram-negative bacteria. The PBMCs were then incubated at 37° C. and 5% CO2 for a further 6 hours and the cell supernatant was collected and a Homogenous Time Resolved Fluorescence (HTRF) assay was carried out following the manufacturer's instructions. Cytokine release from the PBMCs was captured using a Perkin Elmer ENVISION 2104 microplate reader set at 615 nm and 665 nm respectively.

The subject of experiment [3] is IL-23. The description is as above. The conditions noted are these: PBMC, human PBMCs, PMA and ionomycin. On the procedure: as §1
In experiment [4] the test system is IFN-γ. The experiment is described as above. The conditions noted are these: PBMC, human PBMCs, PMA and ionomycin. On the procedure: as §1
For experiment [5], the system named is IL-21. The description is as above. The conditions noted are these: PBMC, human PBMCs, PMA and ionomycin. As for the experimental part:
as §1

For the compound `CCN(CC)CCCn1c2ccccc2c2cc(C(=O)N3CCN(CCc4ccc(F)cc4)CC3)ccc21` [Compound 1007, (9-(3-(diethylamino)propyl)-9H-carbazol-3-yl)(4-(4-fluorophenethyl)piperazin-1-yl)methanone], the “disruption of Tpm3.1-containing actin filaments” value in experiment [1] was “disrupt Tpm3.1-containing actin filaments in a dose-dependent manner”. Besides, the inhibition at 0.1 µM in experiment [2] (0.1 μM) was -4%; in experiment [3] (0.1 μM) it was -15%; in experiment [4] (0.1 μM), 8%; in experiment [5] (0.1 μM), -7%. For the same compound, the inhibition at 1 µM in experiment [2] (1 μM) was 22%; in experiment [3] (1 μM) it was -11%; in experiment [4] (1 μM), 53%; in experiment [5] (1 μM) it was -9%. The inhibition at 10 µM in experiment [2] (10 μM) was 59%; in experiment [3] (10 μM) it was -3%; in experiment [4] (10 μM), 90%; in experiment [5] (10 μM), -4%.
